Experimental data as given in US7135303B2, “Regulators of type-1 tumor necrosis factor receptor and other cytokine receptor shedding” (The United States of America as represented by the …, priority 2000, dated 2006).
Values belong to the molecule of their own block, whether it stands above or below them.

Key:
Assay in all cases: ARTS-1 aminopeptidase activity assay (amide bond hydrolysis of amino acid p-nitroanilide substrates, absorbance at 380 nm)
[1] = target: T1, recombinant GST-ARTS-1 fusion protein (Homo sapiens, UniProt Q9NZ08); format: biochemical; conditions: for Vmax: aa-pNA substrate 0.25 to 8 mM, 24 pmoles GST-ARTS-1, 50 mM Tris pH 7.5, room temperature, 1 hour; for Vmax / Km: Lineweaver-Burk; for kcat / Km: aa-pNA substrate with GST-ARTS-1; for aminopeptidase activity of recombinant GST-ARTS-1 against the amino acid substrate: acidic or basic amino acid p-nitroanilide substrates
T1 construct: ARTS-1 extracellular domain (i.e., the ectodomain; amino acids 30–941) was PCR amplified; made in house
Procedure: (§1) To accomplish this, commercially available amino acid p-nitroanilide substrates were incubated with purified GST-ARTS-1 fusion protein for 1 hour under conditions of linear enzyme activity over time. The rate of amide bond hydrolysis was determined by measuring the absorbance of the p-nitroaniline aminopeptidase reaction product at 380 nm. Each experimental point was run in triplicate and each determination utilized six concentrations of amino acid p-nitroanilide substrate. Kinetic constants were determined by Lineweaver-Burk analysis. Correlation coefficients for each line generated were greater than 0.997. Each amino acid p-nitroaniline substrate tested is shown in the left colurnr, along with its polar/non-polar/acidic/basic nature. Vmax is a measure of the theoretical enzyme maximal velocity, Km is the Michaelis-Menten constant for each ARTS-1/substrate combination, kcat is the first order rate constant (i.e., the turnover number) for the ARTS-1/substrate combination, and kcat/Km is the second order rate constant for the ARTS-1/substrate combination (i.e., a measure of overall catalytic efficiency).
(§2) Aminopeptidase activity of the recombinant GST-ARTS-1 fusion protein was assessed by determination of the rate of amide bond hydrolysis of amino acid p-nitroanilide substrates (Bachem). Amino acid p-nitroanilides (final concentrations 0.25 to 8 mM) were incubated at room temperature with 24 pmoles of GST-ARTS-1 fusion protein in 200 μl of 50 mM Tris, pH 7.5 for 1 hour. Reactions were terminated by addition of 280 μl of 3M sodium acetate (pH 5.2). The rate of amide bond hydrolysis was determined by measuring the absorbance of p-nitroaniline at 380 nm (See, Table 3, supra). Spontaneous hydrolysis of the substrate was corrected for by subtracting the absorbance of control incubations which were terminated immediately. Kinetic constants were determined by Lineweaver-Burk analysis. Each experimental point was assayed in triplicate and each determination utilized six concentrations of each amino acid p-nitroanilide substrate. Correlation coefficients for each line generated were greater than 0.997.

[2] = substrate: CC[C@H](C)[C@H](N)C(=O)Nc1ccc([N+](=O)[O-])cc1; format: biochemical, human; conditions: other: aa-pNA substrate with GST-ARTS-1; Lineweaver-Burk
Procedure: as §1, §2

[3] = substrate: NCC(=O)Nc1ccc([N+](=O)[O-])cc1; format: biochemical, human; conditions: other: aa-pNA substrate with GST-ARTS-1; Lineweaver-Burk
Procedure: as §1, §2

[4] = substrate: N[C@@H](Cc1ccccc1)C(=O)Nc1ccc([N+](=O)[O-])cc1; format: biochemical, human; conditions: other: aa-pNA substrate with GST-ARTS-1; Lineweaver-Burk
Procedure: as §1, §2

- Vmax [1]: No Activity
- kcat [1]: No Activity
- aminopeptidase activity of recombinant GST-ARTS-1 against the amino acid substrate [1]: no activity
Molecule: N[C@@H](CCC(=O)O)C(=O)Nc1ccc([N+](=O)[O-])cc1 [Glu]

- Vmax [1]: 9.45 ± 0.43 pmol/pmol/min
- kcat [1]: 15.75 ± 0.72 s^−1 × 10^−2
- Km [1]: 5.26 ± 0.25 mM
Molecule: CC(C)C[C@H](N)C(=O)Nc1ccc([N+](=O)[O-])cc1 [Leu]

- Vmax [1]: No Activity
- kcat [1]: No Activity
- aminopeptidase activity of recombinant GST-ARTS-1 against the amino acid substrate [1]: no activity
Molecule: N[C@@H](Cc1cnc[nH]1)C(=O)Nc1ccc([N+](=O)[O-])cc1 [His]

- Vmax [1]: 5.81 ± 0.87 pmol/pmol/min
Molecule: CC[C@H](C)[C@H](N)C(=O)Nc1ccc([N+](=O)[O-])cc1 [Ile, isoleucine p-nitroanilide]

Molecule: N=C(N)NCCC[C@H](N)C(=O)Nc1ccc([N+](=O)[O-])cc1 [Arg]
- Vmax [1]: No Activity
- kcat [1]: No Activity
- aminopeptidase activity of recombinant GST-ARTS-1 against the amino acid substrate [1]: no activity

- Vmax [1]: 13.36 ± 0.75 pmol/pmol/min
- kcat [1]: 22.27 ± 1.25 s^−1 × 10^−2
- Km [1]: 7.71 ± 0.43 mM
Molecule: CSCC[C@H](N)C(=O)Nc1ccc([N+](=O)[O-])cc1 [Met]

- Vmax [1]: No Activity
- kcat [1]: No Activity
- aminopeptidase activity of recombinant GST-ARTS-1 against the amino acid substrate [1]: no activity
Molecule: NCCCC[C@H](N)C(=O)Nc1ccc([N+](=O)[O-])cc1 [Lys]

- Vmax [1]: 5.14 ± 0.04 pmol/pmol/min
Molecule: N[C@@H](Cc1ccccc1)C(=O)Nc1ccc([N+](=O)[O-])cc1 [Phe, phenylalanine p-nitroanilide]

- Vmax [1]: 5.29 ± 0.08 pmol/pmol/min
- kcat [1]: 8.82 ± 0.13 s^−1 × 10^−2
- Km [1]: 4.68 ± 0.06 mM
Molecule: O=C(Nc1ccc([N+](=O)[O-])cc1)[C@@H]1CCCN1 [Pro]

- Vmax [1]: No Activity
- kcat [1]: No Activity
- aminopeptidase activity of recombinant GST-ARTS-1 against the amino acid substrate [1]: no activity
Molecule: N[C@@H](CC(=O)O)C(=O)Nc1ccc([N+](=O)[O-])cc1 [Asp]

- Vmax [1]: 5.31 ± 0.31 pmol/pmol/min
- kcat [1]: 8.85 ± 0.52 s^−1 × 10^−2
- Km [1]: 5.69 ± 0.26 mM
Molecule: CC(C)[C@H](N)C(=O)Nc1ccc([N+](=O)[O-])cc1 [Val]

- Vmax [1]: 8.67 ± 0.05 pmol/pmol/min
Molecule: NCC(=O)Nc1ccc([N+](=O)[O-])cc1 [Gly, glycine p-nitroanilide]

- Vmax [1]: 26.18 ± 0.24 pmol/pmol/min
- kcat [1]: 43.63 ± 0.40 s^−1 × 10^−2
- Km [1]: 16.8 ± 0.18 mM
Molecule: C[C@H](N)C(=O)Nc1ccc([N+](=O)[O-])cc1 [Ala]

- Vmax [1]: 8.95 ± 0.31 pmol/pmol/min
- kcat [1]: 14.92 ± 0.52 s^−1 × 10^−2
- Km [1]: 4.57 ± 0.2 mM
Molecule: N[C@@H](CS)C(=O)Nc1ccc([N+](=O)[O-])cc1 [Cys]

B1: recombinant GST-ARTS-1 fusion protein (Homo sapiens) (protein)
chain: SWCQSTEASPKRSDGTPFPWNKIRLPEYVIPVHYDLLIHANLTTLTFWGTTKVEITASQPTSTIILHSHHLQISRATLRKGAGERLSEEPLQVLEHPRQEQIALLAPEPLLVGLPYTVVIHYAGNLSETFHGFYKSTYRTKEGELRILASTQFEPTAARMAFPCFDEPAFKASFSIKIRREPRHLAISNMPLVKSVTVAEGLIEDHFDVTVKMSTYLVAFIISDFESVSKITKSGVKVSVYAVPDKINQADYALDAAVTLLEFYEDYFSIPYPLPKQDLAAIPDFQSGAMENWGLTTYRESALLFDAEKSSASSKLGITMTVAHELAHQWFGNLVTMEWWNDLWLNEGFAKFMEFVSVSVTHPELKVGDYFFGKCFDAMEVDALNSSHPVSTPVENPAQIREMFDDVSYDKGACILNMLREYLSADAFKSGIVQYLQKHSYKNTKNEDLWDSMASICPTDGVKGMDGFCSRSQHSSSSSHWHQEGVDVKTMMNTWTLQKGFPLITITVRGRNVHMKQEHYMKGSDGAPDTGYLWHVPLTFITSKSDMVHRFLLKTKTDVLILPEEVEWIKFNVGMNGYYIVHYEDDGWDSLTGLLKGTHTAVSSNDRASLINNAFQLVSIGKLSIEKALDLSLYLKHETEIMPVFQGLNELIPMYKLMEKRDMNEVETQFKAFLIRLLRDLIDKQTWTDEGSVSERMLRSQLLLLACVHNYQPCVQRAEGYFRKWKESNGNLSLPVDVTLAVFAVGAQSTEGWDFLYSKYQFSLSSTEKSQIEFALCRTQNKEKLQWLLDESFKGDKIKTQEFPQILTLIGRNPVGYPLAWQFLRKNWNKLVQKFELGSSSIAHMVMGTTNQFSTRTRLEEVKGFFSSLKENGSQLRCVQQTIETIEENIGWMDKNFDKIRVWLQSEKLERM
notes: ARTS-1 extracellular domain (i.e., the ectodomain; amino acids 30–941) was PCR amplified; made in house
- Km [2]: 1.67 ± 0.02 mM
- kcat [2]: 0.0968 ± 0.0015 s⁻¹
- kcat/Km [2]: 58 M⁻¹ s⁻¹
- Km [3]: 3.67 ± 0.03 mM
- kcat [3]: 0.1445 ± 0.0008 s⁻¹
- kcat/Km [3]: 39.4 M⁻¹ s⁻¹
- Km [4]: 1.66 ± 0.03 mM
- kcat [4]: 0.0857 ± 0.0006 s⁻¹
- kcat/Km [4]: 51.6 M⁻¹ s⁻¹
